According to PubChem BioAssay AID248 (DTP/NCI, 2004):
“And” between values parts separate entries of the source, which are not always exact repeats. Equal entries are not always repeated. Inconclusive results and toxic doses are left out. Cut-off read from the data, not from the text of the source: active = T/C of 150% or more; inactive = T/C below 125%.

Test system: L1210 leukemia ip in BDF1 mice, survival T/C
Test: NCI In Vivo Anticancer Drug Screen. Data for tumor model L1210 Leukemia (intraperitoneal) in B6D2F1 (BDF1) mice
Details: endpoint: mean survival time, higher = longer survival
In short: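 Transplantable tumor model; survival measured in treated vs vehicle control mice. Value = treated/control.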

[1] = dose: 50.0 mg/kg/injection, schedule: Q01DX001 (ip), vehicle: saline
[2] = dose: 50.0 mg/kg/injection, schedule: Q01DX009 (ip), vehicle: saline
[3] = dose: 100.0 mg/kg/injection, schedule: Q01DX001 (ip), vehicle: saline
[4] = dose: 100.0 mg/kg/injection, schedule: Q04DX003 (ip), vehicle: saline
[5] = dose: 200.0 mg/kg/injection, schedule: Q04DX003 (ip), vehicle: saline
[6] = dose: 100.0 mg/kg/injection, schedule: Q01DX009 (ip), vehicle: Klucel (hydroxypropylcellulose) (HPC)
[7] = dose: 200.0 mg/kg/injection, schedule: Q01DX001 (ip), vehicle: saline
[8] = dose: 400.0 mg/kg/injection, schedule: Q01DX001 (ip), vehicle: saline
[9] = dose: 100.0 mg/kg/injection, schedule: Q01DX009 (ip), vehicle: saline with Tween-80
[10] = dose: 200.0 mg/kg/injection, schedule: Q01DX009 (ip), vehicle: saline with Tween-80
[11] = dose: 400.0 mg/kg/injection, schedule: Q01DX009 (ip), vehicle: saline with Tween-80
[12] = dose: 200.0 mg/kg/injection, schedule: Q01DX009 (ip), vehicle: Klucel (hydroxypropylcellulose) (HPC)
[13] = dose: 400.0 mg/kg/injection, schedule: Q01DX009 (ip), vehicle: Klucel (hydroxypropylcellulose) (HPC)
[14] = dose: 25.0 mg/kg/injection, schedule: Q01DX001 (ip), vehicle: Klucel (hydroxypropylcellulose) (HPC)
[15] = dose: 50.0 mg/kg/injection, schedule: Q01DX001 (ip), vehicle: Klucel (hydroxypropylcellulose) (HPC)
[16] = dose: 12.5 mg/kg/injection, schedule: Q01DX009 (ip), vehicle: saline with Tween-80
[17] = dose: 25.0 mg/kg/injection, schedule: Q01DX009 (ip), vehicle: saline with Tween-80
[18] = dose: 50.0 mg/kg/injection, schedule: Q01DX009 (ip), vehicle: saline with Tween-80

Measured: T/C

CCN(CC)CCn1c(=O)c2ccccc2c2ccccc21
inactive: [1] 108 % of control | [2] 106 % of control | dose: 50.0 mg/kg/injection, schedule: Q04DX003 (ip), vehicle: saline 103 % of control | [3] 104 % of control | [4] 111 % of control | [5] 107 % of control

Nc1nc([Se]c2ccc([N+](=O)[O-])cc2)c2ncn(C3CC(O)C(CO)O3)c2n1 (configuration not stated)
inactive: dose: 100.0 mg/kg/injection, schedule: Q01DX005 (ip), vehicle: saline 100 % of control | dose: 200.0 mg/kg/injection, schedule: Q01DX005 (ip), vehicle: saline 100 % of control

O=C(O)CNC(=O)c1ccc(NC(=S)Nc2ccccc2)cc1
inactive: dose: 25.0 mg/kg/injection, schedule: Q01DX009 (ip), vehicle: Klucel (hydroxypropylcellulose) (HPC) 90 % of control | dose: 50.0 mg/kg/injection, schedule: Q01DX009 (ip), vehicle: Klucel (hydroxypropylcellulose) (HPC) 88 % of control | [6] 108 % of control and 91 % of control

CCN(CC)CC(=O)NCC(CC)(CCN(C)C)c1cccc2ccccc12 (configuration not stated)
inactive: dose: 100.0 mg/kg/injection, schedule: Q01DX009 (ip), vehicle: saline 105 % of control | [4] 102 % of control | dose: 200.0 mg/kg/injection, schedule: Q01DX009 (ip), vehicle: saline 97 % of control | [5] 100 % of control

C[N+]1(C)C2CCC1[C@H](C(=O)[O-])[C@@H](O)C2 (some centres not stated)
inactive: [3] 103 % of control | [7] 93 % of control | [8] 98 % of control

CC(C)(C)C1COP(=O)(Oc2ccccc2)OC1 (configuration not stated)
inactive: dose: 100.0 mg/kg/injection, schedule: Q01DX001 (ip), vehicle: carboxymethylcellulose (CMC) 91 % of control | dose: 200.0 mg/kg/injection, schedule: Q01DX001 (ip), vehicle: carboxymethylcellulose (CMC) 94 % of control

COc1ccc(C(=O)N/N=C/c2ccccc2)cc1
inactive: [1] 102 % of control | [3] 98 % of control | [7] 98 % of control | [8] 98 % of control

COc1cc(N=Nc2ccc([N+](=O)[O-])cc2C)ccc1N
inactive: dose: 100.0 mg/kg/injection, schedule: Q01DX001 (ip), vehicle: other 97 % of control | dose: 200.0 mg/kg/injection, schedule: Q01DX001 (ip), vehicle: other 97 % of control | dose: 400.0 mg/kg/injection, schedule: Q01DX001 (ip), vehicle: other 86 % of control

O=C(O)C1CC(n2cnc3c(=O)[nH]cnc32)CN1 (configuration not stated)
inactive: dose: 50.0 mg/kg/injection, schedule: Q04DX002 (ip), vehicle: saline with Tween-80 102 % of control | dose: 100.0 mg/kg/injection, schedule: Q04DX002 (ip), vehicle: saline with Tween-80 98 % of control

CN(C)C1c2ccccc2-c2cccc(C(=O)O)c21 (configuration not stated)
inactive: [3] 108 % of control | [7] 103 % of control | [8] 103 % of control

COc1ccc(NC(=O)Oc2cccc(C(F)(F)F)c2)c(Cl)c1
inactive: [9] 96 % of control | [10] 97 % of control | [11] 94 % of control

CC(C)(C)C(=O)CC(=O)C(C)(C)C.CC(C)(C)C(=O)CC(=O)C(C)(C)C.CC(C)(C)C(=O)CC(=O)C(C)(C)C.[Yb]
inactive: dose: 100.0 mg/kg/injection, schedule: Q01DX005 (ip), vehicle: Klucel (hydroxypropylcellulose) (HPC) 97 % of control | [6] 97 % of control | dose: 100.0 mg/kg/injection, schedule: Q04DX002 (ip), vehicle: Klucel (hydroxypropylcellulose) (HPC) 96 % of control | dose: 200.0 mg/kg/injection, schedule: Q01DX005 (ip), vehicle: Klucel (hydroxypropylcellulose) (HPC) 105 % of control | [12] 97 % of control | dose: 200.0 mg/kg/injection, schedule: Q04DX002 (ip), vehicle: Klucel (hydroxypropylcellulose) (HPC) 107 % of control | dose: 400.0 mg/kg/injection, schedule: Q01DX005 (ip), vehicle: Klucel (hydroxypropylcellulose) (HPC) 101 % of control | [13] 97 % of control | dose: 400.0 mg/kg/injection, schedule: Q04DX002 (ip), vehicle: Klucel (hydroxypropylcellulose) (HPC) 96 % of control

CCCCCCCCCCC(=O)NC1CCC(CC2CCCCC2)CC1 (configuration not stated)
inactive: dose: 100.0 mg/kg/injection, schedule: Q04DX003 (ip), vehicle: other 101 % of control | dose: 200.0 mg/kg/injection, schedule: Q04DX003 (ip), vehicle: other 103 % of control | dose: 400.0 mg/kg/injection, schedule: Q04DX003 (ip), vehicle: other 101 % of control

O=C(Nc1ccccc1CSc1nc2nc[nH]c(=O)c2[nH]1)c1ccc(S(=O)(=O)F)cc1
inactive: [14] 108 % of control | [15] 111 % of control | dose: 100.0 mg/kg/injection, schedule: Q01DX001 (ip), vehicle: Klucel (hydroxypropylcellulose) (HPC) 114 % of control

O=C(Nc1ccc(Cl)c(C(F)(F)F)c1)Oc1ccccn1
inactive: [16] 101 % of control | [17] 99 % of control | [18] 92 % of control | [9] 93 % of control

Nc1nc(N)c(CCCOc2ccc(NC(=O)CBr)cc2)c(N)n1
inactive: dose: 12.5 mg/kg/injection, schedule: Q01DX001 (ip), vehicle: Klucel (hydroxypropylcellulose) (HPC) 98 % of control | [14] 100 % of control | [15] 105 % of control

CC12CC(c3ccccc3)C(C)(C(c3ccccc3)=C1c1ccccc1)C2(C)O (configuration not stated)
inactive: dose: 100.0 mg/kg/injection, schedule: Q01DX001 (ip), vehicle: saline with Tween-80 93 % of control | dose: 200.0 mg/kg/injection, schedule: Q01DX001 (ip), vehicle: saline with Tween-80 100 % of control | dose: 400.0 mg/kg/injection, schedule: Q01DX001 (ip), vehicle: saline with Tween-80 88 % of control

Cc1ccccc1N1OS(=O)(=O)CC1(C#N)c1ccccc1 (configuration not stated)
inactive: [9] 98 % of control | [10] 102 % of control | [11] 96 % of control

[Cl][Co][Cl].[NH-]CCC[NH-].[NH-]CCC[NH-]
inactive: [4] 109 % of control

CCOc1ccc(NC(=O)C(Br)C(Br)c2ccccc2)cc1 (configuration not stated)
inactive: [6] 100 % of control | [12] 96 % of control | [13] 91 % of control

O=C(NCCCl)NC1C(O)OC(CO)C(O)C1O (configuration not stated)
inactive: dose: 25.0 mg/kg/injection, schedule: Q01DX009 (ip), vehicle: water 95 % of control | dose: 50.0 mg/kg/injection, schedule: Q01DX009 (ip), vehicle: water 110 % of control | [3] 97 % of control | dose: 100.0 mg/kg/injection, schedule: Q01DX009 (ip), vehicle: water 105 % of control | [7] 98 % of control | dose: 200.0 mg/kg/injection, schedule: Q01DX009 (ip), vehicle: water 100 % of control | [8] 96 % of control | dose: 400.0 mg/kg/injection, schedule: Q01DX009 (ip), vehicle: water 97 % of control

Cc1cc(C)c(C(=O)O)cc1C(=O)O
inactive: [18] 100 % of control | [9] 100 % of control | [10] 106 % of control

NCC(S)c1ccc(Cl)cc1 (configuration not stated)
inactive: dose: 12.5 mg/kg/injection, schedule: Q01DX009 (ip), vehicle: saline 114 % of control | dose: 25.0 mg/kg/injection, schedule: Q01DX009 (ip), vehicle: saline 101 % of control | [2] 97 % of control

CN1CCC(CCOCc2ccccc2)(CN2c3ccccc3Sc3ccccc32)C1 (configuration not stated)
inactive: dose: 6.25 mg/kg/injection, schedule: Q01DX009 (ip), vehicle: saline with Tween-80 93 % of control | [16] 98 % of control | [17] 93 % of control

O=c1[nH]cnc2c1ncn2C1CCCCC1
inactive: dose: 23.12 mg/kg/injection, schedule: Q01DX Z (ip), vehicle: carboxymethylcellulose (CMC) 100 % of control | dose: 46.25 mg/kg/injection, schedule: Q01DX Z (ip), vehicle: carboxymethylcellulose (CMC) 105 % of control | dose: 46.25 mg/kg/injection, schedule: Q01DX Z (oral), vehicle: carboxymethylcellulose (CMC) 94 % of control | dose: 92.5 mg/kg/injection, schedule: Q01DX Z (ip), vehicle: carboxymethylcellulose (CMC) 96 % of control | dose: 92.5 mg/kg/injection, schedule: Q01DX Z (oral), vehicle: carboxymethylcellulose (CMC) 97 % of control | dose: 185.0 mg/kg/injection, schedule: Q01DX Z (ip), vehicle: carboxymethylcellulose (CMC) 100 % of control | dose: 185.0 mg/kg/injection, schedule: Q01DX Z (oral), vehicle: carboxymethylcellulose (CMC) 100 % of control | dose: 370.0 mg/kg/injection, schedule: Q01DX Z (oral), vehicle: carboxymethylcellulose (CMC) 97 % of control
